Laboratory results as given in ChEMBL document CHEMBL1921698, “Identification of small-molecule inhibitors of Trypansoma cruzi replication” (Bioorg Med Chem Lett, 2011).

Columns and labels:
[1] = Selectivity ratio of IC50 for mouse NIH/3T3 cells to IC50 for trypomastigote form of Trypanosoma cruzi Tulahuen; type: ADME, cell-based; settings: read-out: Ratio IC50
[2] = test system: NIH3T3; assay: Cytotoxicity against mouse NIH/3T3 cells; type: cell-based; settings: for IC50: Mus musculus, NIH3T3; for Activity: mouse, nih3t3
[3] = Solubility of compound in phosphate buffered saline buffer; type: physicochemical
[4] = test system: Trypanosoma cruzi; assay: Antitrypanosomal activity against trypomastigote form of Trypanosoma cruzi Tulahuen expressing beta-galactosidase infected in mouse NIH/3T3 cells assessed as inhibition of parasite replication after 4 days by betagalactosidase-based luminescence assay; type: functional, organism-based; settings: NIH3T3, 96 h
[5] = test system: NIH3T3; assay: Cytotoxicity against mouse NIH/3T3 cells up to 19.5 uM; type: cell-based
[6] = Chemical stability of the compound in phosphate buffered saline assessed as compound remaining after 48 hrs; type: physicochemical; settings: read-out: Stability

## CN(Cc1ccccc1)C(=O)C1CCCN(Cc2ccc(Br)cc2)C1 (centres undefined)
[1]
  selectivity ratio: 24.6
[2]
  IC50: 74.3 µM
[3]
  solubility: > 100 µM
[4]
  IC50: 3.01 µM

## CC(C)Oc1cccc(C(=O)C2CCCN(Cc3cnn(C(C)C)c3)C2)c1 (centres undefined)
[2]
  Activity: Non-toxic
[3]
  solubility: > 200 µM
[4]
  IC50: 0.054 µM

## COc1ccccc1CN1CCCC(C(=O)N(C)Cc2ccccc2)C1 (centres undefined)
[1]
  selectivity ratio: 7.16
[2]
  IC50: 77.3 µM
[3]
  solubility: > 100 µM
[4]
  IC50: 10.8 µM

## CCN(CC)C(=O)C1CCCN(Cc2cccc(Cl)c2)C1 (centres undefined)
[1]
  selectivity ratio: 16.6
[2]
  IC50: 164 µM
[3]
  solubility: > 100 µM
[4]
  IC50: 9.91 µM

## COc1ccc(C(=O)C2CCCN(CC3CCCCC3)C2)cc1OC (centres undefined)
[3]
  solubility: > 200 µM
[4]
  IC50: 1.57 µM

## CCCn1ncc(CN2CCCC(C(=O)c3cccc(OC(C)C)c3)C2)c1C (centres undefined)
[5]
  Activity: Non-toxic
[2]
  Activity: Non-toxic
[3]
  solubility: > 500 µM
[4]
  IC50: 0.035 µM

## Cn1cc(CN2CCCC(C(=O)c3ccc(C(C)(C)C)cc3)C2)cn1 (centres undefined)
[3]
  solubility: > 200 µM
[4]
  IC50: 1.63 µM

## COc1ccc(C(=O)C2CCCN(CCc3ccccc3)C2)cc1OC (centres undefined)
[1]
  selectivity ratio: 37.7
[2]
  IC50: 19.5 µM
[3]
  solubility: > 200 µM
[4]
  IC50: 0.518 µM

## Cc1cc(C)n(CC(=O)N2CCCC(C(=O)c3cccc(OC(C)C)c3)C2)n1 (centres undefined)
[3]
  solubility: > 200 µM
[4]
  IC50: 16.5 µM

## CN(Cc1ccccc1)C(=O)C1CCCN(Cc2ccccc2C(F)(F)F)C1 (centres undefined)
[1]
  selectivity ratio: 3.98
[2]
  IC50: 63.3 µM
[3]
  solubility: > 100 µM
[4]
  IC50: 15.9 µM

## COc1ccc(CN2CCCC(C(=O)N3CCc4ccccc4C3)C2)cc1OC (centres undefined)
[1]
  selectivity ratio: 11.8
[2]
  IC50: 41.7 µM
[3]
  solubility: > 100 µM
[4]
  IC50: 3.54 µM

## COc1cc2c(cc1OC)CN(C(=O)C1CCCN(Cc3ccccc3)C1)CC2 (centres undefined)
[1]
  selectivity ratio: 69.1
[2]
  IC50: 52.7 µM
[3]
  solubility: > 100 µM
[4]
  IC50: 0.763 µM

## CCn1ncc(CN2CCCC(C(=O)c3cccc(OC(C)C)c3)C2)c1C (centres undefined)
[2]
  Activity: Non-toxic
[3]
  solubility: > 200 µM
[4]
  IC50: 0.056 µM

## COc1ccc(CCN(C)C(=O)C2CCCN(Cc3ccccc3)C2)cc1OC (centres undefined)
[1]
  selectivity ratio: 33.6
[2]
  IC50: 47 µM
[3]
  solubility: > 100 µM
[4]
  IC50: 1.4 µM

## CN(Cc1ccccc1)C(=O)C1CCCN(Cc2cccc(Cl)c2)C1 (centres undefined)
[1]
  selectivity ratio: 123
[2]
  IC50: 70.3 µM
[3]
  solubility: > 100 µM
[4]
  IC50: 0.57 µM

## CN(Cc1ccccc1)C(=O)C1CCCN(Cc2ccc(C(F)(F)F)cc2)C1 (centres undefined)
[1]
  selectivity ratio: > 1000
[2]
  IC50: 61.6 µM
[3]
  solubility: > 100 µM
[4]
  IC50: 0.008 µM

## COc1ccc(CN2CCCC(C(=O)N3CCCC3)C2)c(OC)c1OC (centres undefined)
[2]
  Activity: Non-toxic
[3]
  solubility: > 100 µM
[4]
  IC50: 1.01 µM

## COc1ccc(CCN(C)C(=O)C2CCCN(Cc3ccc(F)cc3)C2)cc1OC (centres undefined)
[1]
  selectivity ratio: 14.9
[2]
  IC50: 64.7 µM
[3]
  solubility: > 100 µM
[4]
  IC50: 4.33 µM

## CCCn1cc(CN2CCCC(C(=O)c3cccc(C(F)(F)F)c3)C2)cn1 (centres undefined)
[3]
  solubility: > 200 µM
[4]
  IC50: 0.25 µM

## CN(Cc1ccccc1)C(=O)C1CCCN(Cc2ccc([N+](=O)[O-])cc2)C1 (centres undefined)
[1]
  selectivity ratio: 6.68
[2]
  IC50: 51 µM
[3]
  solubility: > 100 µM
[4]
  IC50: 7.63 µM

## COc1ccc(CCN(C)C(=O)C2CCCN(Cc3ccc(OC)c(OC)c3)C2)cc1OC (centres undefined)
[5]
  Activity: Non-toxic
[2]
  Activity: Non-toxic
[3]
  solubility: > 500 µM
[6]
  remaining at 48 h: 84%
[4]
  IC50: 0.109 µM
